Where no end group is shown, it is not given here.
Legend:
[1] = tested on: normal FSF cells; assay: Fluorescence microscopy of FITC-labeled peptide, FSF cells; assay type: cell-based, human; details: 20 μg/ml, 1 hr, fluorescence microscope, FIG. 10
Protocol: (§1) To reconfirm the cell selectivity of the peptides of the present invention, each 2×10^5 of normal FSF and HaCat cells, and SM-MEL-5 cell line, HeLa cell line and HCT-116 cell line as cancer cells were cultured at 37° C. overnight, and FITC (fluorescein isothiocyanate)-labeled peptides, buforin IIB and magainin 2 were added thereto at a concentration of 20 μg/ml, followed by incubation for 1 hr. Each cell or cell line was washed with PBS, and observed under a fluorescence microscope (FIG. 10).

[2] = tested on: normal HaCat cells; assay: Fluorescence microscopy of FITC-labeled peptide, HaCat cells; assay type: cell-based, human; details: 20 μg/ml, 1 hr, fluorescence microscope, FIG. 10
Protocol: as §1

[3] = tested on: SM-MEL-5 cell line; assay: Fluorescence microscopy of FITC-labeled peptide, SM-MEL-5 cell line; assay type: cell-based, human; details: 20 μg/ml, 1 hr, fluorescence microscope, FIG. 10
Protocol: as §1

[4] = tested on: HeLa cell line; assay: Fluorescence microscopy of FITC-labeled peptide, HeLa cell line; assay type: cell-based, human; details: 20 μg/ml, 1 hr, fluorescence microscope, FIG. 10
Protocol: as §1

[5] = tested on: HCT-116 cell line; assay: Fluorescence microscopy of FITC-labeled peptide, HCT-116 cell line; assay type: cell-based, human; details: 20 μg/ml, 1 hr, fluorescence microscope, FIG. 10
Protocol: as §1

[6] = tested on: K-562 cancer cell line; assay: Competitive binding assay with ganglioside, phosphatidylserine or heparin (MTT viability); assay type: cell-based, human; details: peptide 10 μg/ml, 48 hrs
Description: Accordingly, the present inventors assumed that external addition of ganglioside, phosphatidylserine, and heparin to the cancer cell culture media causes dispersion of the peptides of the present invention in the cancer cell surface and the negatively charged materials added to the culture media, whereby the anticancer activity is reduced by the addition of negatively charged materials in a concentration-dependent manner.
In detail, the K-562 cancer cell line was aliquoted to each well of 96-well plate at a density of 1×10^4, and each well was treated with 1 to 100 μg/ml of heparin, phosphatidylserine or ganglioside, and 10 μg/ml of the peptides of the present invention, buforin IIb and magainin 2, followed by cultivation for 48 hrs. Cell viability was measured in the same manner as in Example 1 (MTT assay) (FIGS. 13 to 15).

[7] = tested on: K-562 cancer cell line; assay: Anticancer activity on cancer cells lacking ganglioside (PMPP, MTT viability); assay type: cell-based, human; details: peptide 10 μg/ml, PMPP 0, 2 and 4 μM, 48 hrs, FIG. 16
Protocol: In detail, the K-562 cancer cell line was aliquoted to each well of 96-well plate at a density of 1×10^4, and each well was treated with an inhibitor of ganglioside biosynthesis, PMPP at the concentration of 0, 2 and 4 μM, and then treated with 10 μg/ml of the peptides of the present invention, buforin IIb and magainin 2, followed by cultivation for 48 hrs. Cell viability was measured in the same manner as in Example 1 (MTT assay) (FIG. 16).

[8] = tested on: human erythrocyte; assay: Disruption of human erythrocytes (absorbance); details: peptide 10-200 μg/ml, 30 min, FIG. 3
Protocol: (§2) In order to test toxicity of the synthesized NKC and NRC peptides on normal cells, each of the cultured human embryo fibroblast (FSF), human keratinocyte (HaCat) and human erythrocyte was treated with the synthesized peptide, and the viability of each cell was analyzed.
Meanwhile, PBS was added to erythrocytes obtained from the human blood, and diluted 1,000-fold. Each of the synthesized peptides, a known anticancer peptide, buforin IIb, and a known non-cytotoxic peptide, magainin 2 was added thereto at a concentration of 10, 25, 50, 100 or 200 μg/ml. After 30 min, disruption of erythrocytes was determined by the difference in absorbance using spectrometry (FIG. 3). In this connection, an experimental group treated with PBS only was used as a control group.

[9] = tested on: human keratinocyte (HaCat); assay: MTT viability of normal human keratinocyte (HaCat) cells; details: peptide 10-200 μg/ml, 4 days, FIG. 2
Protocol: as §2
(§3) In detail, each 1×10^4 of FSF and HaCat cells was aliquoted to a 96-well plate, and cultured for 24 hrs. Subsequently, each of the synthesized peptides, a known anticancer peptide, buforin IIb, and a known non-cytotoxic peptide, magainin 2 was added thereto at a concentration of 10, 25, 50, 100 or 200 μg/ml, and then the cells were cultured for 4 days. Thereafter, MTT (3-[4,5-dimethylthiazol-2-yl]-2,5-diphenyltetrazolium bromide) was added, and color development was detected using a spectrophotometer to count the number of surviving cells. On the basis of this, viability of each cell was calculated (FIGS. 1 and 1b). In this connection, an experimental group treated with PBS only was used as a control group.

[10] = tested on: human embryo fibroblast (FSF); assay: MTT viability of normal human embryo fibroblast (FSF) cells; details: peptide 10-200 μg/ml, 4 days, FIG. 1
Protocol: as §2, §3

With magainin 2 the “detection of FITC-labeled peptide in normal FSF cells” value [1] was “not detected”, the “detection of FITC-labeled peptide in normal HaCat cells” value [2] was “not detected” and the “detection of FITC-labeled peptide in SM-MEL-5 cell line” value [3] was “not detected”. For the same substance, the “detection of FITC-labeled peptide in HeLa cell line” value [4] was “not detected” and the “detection of FITC-labeled peptide in HCT-116 cell line” value [5] was “not detected”.
In the case of buforin IIb, the “detection of FITC-labeled peptide in normal FSF cells” value [1] is reported as “rarely detected”, the “detection of FITC-labeled peptide in normal HaCat cells” value [2] is reported as “at a predetermined level” and the “detection of FITC-labeled peptide in SM-MEL-5 cell line” value [3] is reported as “in a large quantity”. For the same substance, the “detection of FITC-labeled peptide in HeLa cell line” value [4] was “in a large quantity”, the “detection of FITC-labeled peptide in HCT-116 cell line” value [5] was “in a large quantity” and the “cell viability with external addition of ganglioside” value ([6]; ganglioside 1 to 100 μg/ml, FIG. 13) was “high cell viability”. For the same substance, the “cell viability with external addition of heparin” value ([6]; heparin 1 to 100 μg/ml, FIG. 15) was “high cell viability”, the “cell viability with external addition of phosphatidylserine” value ([6]; phosphatidylserine 1 to 100 μg/ml, FIG. 14) was “high cell viability” and the “viability of cancer cells with increasing concentration of inhibitor of ganglioside biosynthesis” value [7] was “increased”.
In the case of “APKAMRLLRRLLRLQKKGI-NH2 [NRC, APKAMRLLRRLLRLQKKGI-amide]”, the “viability of erythrocytes (toxicity on normal cells)” value [8] is reported as “little toxicity”, the “viability of HaCat cells (toxicity on normal cells)” value [9] is reported as “little toxicity” and the “viability of FSF cells (toxicity on normal cells)” value [10] is reported as “little toxicity”.
With “APKAMKLLKKLLKLQKKGI-NH2 [NKC, APKAMKLLKKLLKLQKKGI-amine]” the “viability of erythrocytes (toxicity on normal cells)” value [8] was “little toxicity”, the “viability of HaCat cells (toxicity on normal cells)” value [9] was “little toxicity” and the “viability of FSF cells (toxicity on normal cells)” value [10] was “little toxicity”.

Source: patent US9067970B2, “Anticancer agents comprising peptides with cancer-specific toxicity” (Korea Advanced Institute of Science and Technology, priority 2010, dated 2015)
